Results on one compound are retold here after paper PMC10493664, “The neurotrophic activities of brain‐derived neurotrophic factor are potentiated by binding with apigenin, a common flavone in vegetables, in stimulating the receptor signaling” (CNS Neuroscience & Therapeutics, 2023).

For this experiment, the target named is T1, BDNF (Homo sapiens, UniProt P23560).
T1 construct: purchased human BDNF (Alomone Labs); noncovalent dimer; PDB 1B8M used only as docking model
T1 sequence (P23560 129-247): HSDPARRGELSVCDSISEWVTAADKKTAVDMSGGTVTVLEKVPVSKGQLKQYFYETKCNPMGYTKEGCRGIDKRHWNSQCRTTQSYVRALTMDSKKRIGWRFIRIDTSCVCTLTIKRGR
Nature of the experiment: surface plasmon resonance (Biacore T100, BDNF on CM5 chip, steady-state affinity fit). The format is binding. In general terms: In SPR one partner is held on a chip, and binding of the other changes the refractive index at the surface.

One may read the Kd as the concentration at which binding is half-saturated. `O=c1cc(-c2ccc(O)cc2)oc2cc(O)cc(O)c12` [apigenin] had a dissociation constant Kd of roughly 14.2 µM.
